In one experiment the target is T1, Sterol O-acyltransferase 1 (Rattus norvegicus, UniProt O70536).
T1 sequence (O70536 whole entry): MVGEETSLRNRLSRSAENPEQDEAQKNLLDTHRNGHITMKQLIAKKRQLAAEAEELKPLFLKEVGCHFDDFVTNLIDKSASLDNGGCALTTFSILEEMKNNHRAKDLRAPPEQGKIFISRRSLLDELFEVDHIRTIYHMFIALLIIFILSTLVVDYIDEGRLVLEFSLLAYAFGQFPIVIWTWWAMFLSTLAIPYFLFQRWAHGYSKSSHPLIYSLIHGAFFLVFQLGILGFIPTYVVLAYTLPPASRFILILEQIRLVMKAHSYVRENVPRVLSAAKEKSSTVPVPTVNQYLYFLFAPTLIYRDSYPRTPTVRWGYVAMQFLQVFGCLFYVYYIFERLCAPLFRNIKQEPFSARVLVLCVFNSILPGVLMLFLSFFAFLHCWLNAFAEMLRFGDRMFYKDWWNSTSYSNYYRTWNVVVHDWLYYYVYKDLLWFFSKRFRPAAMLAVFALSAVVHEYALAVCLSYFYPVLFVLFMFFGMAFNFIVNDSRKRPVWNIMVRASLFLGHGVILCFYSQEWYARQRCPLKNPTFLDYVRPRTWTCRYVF
Put plainly: (§1) Concentration required for the in vitro inhibition of Acyl coenzyme A:cholesterol acyltransferase (ACAT) in liver microsomes isolated from cholesterol-fed rats was determined.
In general, IC50 refers to the midpoint of a concentration-inhibition curve. Lower therefore signals greater potency. Regarding `CCCCCCCCCCCCn1nnc(C(C(=O)Nc2c(OC)cc(OC)cc2OC)c2ccccc2)n1` (configuration not stated) [2-(2-Dodecyl-2H-tetrazol-5-yl)-2-phenyl-N-(2,4,6-trimethoxy-phenyl)-acetamide], half-maximal inhibition (IC50) required 24 nM.

For a further experiment, the target named is T1, Sterol O-acyltransferase 1. Nature of the experiment: ChEBML_28484. On the procedure:
as §1
`CCCCCCCC[C@@H](SCCCCCC)C(=O)Nc1c(SC)cc[n+](C)c1SC` gave an IC50 of 22 nM.
`CCCCCCCC[C@H](SCCCCCC)C(=O)Nc1c(SC)cc[n+](C)c1SC` displayed a half-maximal inhibitory concentration (IC50) of 160 nM.
`CCCCCCCCCCCCn1nnnc1C(C(=O)Nc1c(C(C)C)cccc1C(C)C)c1ccccc1` (configuration not stated) had an IC50 of 79 nM.
Still for that read-out and setting: next, `CCCCCCCCCCCCn1nnc(C(C(=O)Nc2c(C(C)C)cccc2C(C)C)c2ccccc2)n1` (configuration not stated) [N-(2,6-Diisopropyl-phenyl)-2-(2-dodecyl-2H-tetrazol-5-yl)-2-phenyl-acetamide]: 10 nM; `CCCCCCCCCCCCn1nnc(C(C(=O)Nc2c(OC)cc(OC)cc2OC)c2ccccc2)n1` (configuration not stated) [2-(2-Dodecyl-2H-tetrazol-5-yl)-2-phenyl-N-(2,4,6-trimethoxy-phenyl)-acetamide]: 14 nM.
Turning to `CCCCCCCCCCCCn1nnnc1C(C(=O)Nc1c(OC)cc(OC)cc1OC)c1ccccc1` (configuration not stated), the IC50 amounted to 52 nM.
